Reference: article PMC10586084 (Journal of Enzyme Inhibition and Medicinal Chemistry, 2023)

Key:
Assay type in all cases: biochemical
hCA IV = hCA IV (Homo sapiens, UniProt P22748); assay: stopped-flow CO2 hydrase assay, hCA IV; details: stopped flow technique, mean from three assays
hCA I = hCA I (Homo sapiens, UniProt P00915); assay: stopped-flow CO2 hydrase assay, hCA I; details: stopped flow technique, mean from three assays
hCA II = hCA II (Homo sapiens, UniProt P00918); assay: stopped-flow CO2 hydrase assay, hCA II; details: stopped flow technique, mean from three assays
hCA XII = hCA XII (Homo sapiens, UniProt O43570); assay: stopped-flow CO2 hydrase assay, hCA XII; details: for Ki: KI hCA XII, stopped flow technique, mean from three assays; for Selectivity index I/XII: ratio KI hCA I / KI hCA XII; for Selectivity index II/XII: ratio KI hCA II / KI hCA XII; for Selectivity index IV/XII: ratio KI hCA IV / KI hCA XII
hCA IX = hCA IX (Homo sapiens, UniProt Q16790); assay: biochemical; details: for Ki: KI hCA IX, stopped flow technique, mean from three assays; for Selectivity index I/IX: ratio KI hCA I / KI hCA IX; for Selectivity index II/IX: ratio KI hCA II / KI hCA IX; for Selectivity index IV/IX: ratio KI hCA IV / KI hCA IX

Sequence of hCA XII (O43570 25-354): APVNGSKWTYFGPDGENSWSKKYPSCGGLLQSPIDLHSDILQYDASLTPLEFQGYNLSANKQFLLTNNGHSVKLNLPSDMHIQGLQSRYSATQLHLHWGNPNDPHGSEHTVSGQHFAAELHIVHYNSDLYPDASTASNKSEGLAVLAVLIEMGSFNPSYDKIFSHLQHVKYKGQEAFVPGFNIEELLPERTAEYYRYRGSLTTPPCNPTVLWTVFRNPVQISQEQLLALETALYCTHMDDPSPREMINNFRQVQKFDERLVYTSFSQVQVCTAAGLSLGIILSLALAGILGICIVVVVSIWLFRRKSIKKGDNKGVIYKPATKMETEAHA
Sequence of hCA I (P00915 whole entry): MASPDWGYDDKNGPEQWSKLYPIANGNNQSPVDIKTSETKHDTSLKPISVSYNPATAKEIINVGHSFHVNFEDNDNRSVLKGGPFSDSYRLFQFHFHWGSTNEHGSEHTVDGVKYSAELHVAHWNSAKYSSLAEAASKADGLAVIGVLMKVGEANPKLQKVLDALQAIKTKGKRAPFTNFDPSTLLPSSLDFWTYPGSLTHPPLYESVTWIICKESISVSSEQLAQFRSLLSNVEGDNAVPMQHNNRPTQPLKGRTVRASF
Sequence of hCA IV (P22748 19-284 limits assumed): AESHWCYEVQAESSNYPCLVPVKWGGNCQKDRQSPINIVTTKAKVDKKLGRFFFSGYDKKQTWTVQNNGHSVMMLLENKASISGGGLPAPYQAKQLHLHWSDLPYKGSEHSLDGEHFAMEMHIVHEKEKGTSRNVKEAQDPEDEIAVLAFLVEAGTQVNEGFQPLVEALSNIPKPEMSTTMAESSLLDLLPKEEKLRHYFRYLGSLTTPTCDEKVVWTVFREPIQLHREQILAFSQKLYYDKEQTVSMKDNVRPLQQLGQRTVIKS

Structure (SMILES)	Ki (hCA IV) [µM]	Ki (hCA I) [µM]	Ki (hCA II) [µM]	Ki (hCA XII) [µM]	Ki (hCA IX) [µM]	Selectivity index I/XII (hCA XII)	Selectivity index II/XII (hCA XII)	Selectivity index IV/XII (hCA XII)	Selectivity index I/IX (hCA IX)	Selectivity index II/IX (hCA IX)	Selectivity index IV/IX (hCA IX)
NS(=O)(=O)c1ccc(Nc2nc3nccc(-c4cccnc4)n3n2)cc1 [Compound 1d, 4-((7-(Pyridin-3-yl)-[1,2,4]triazolo[1,5-a]pyrimidin-2-yl)amino)benzenesulfonamide]	0.333	0.602	0.0248	0.0088	0.0051						
NS(=O)(=O)c1ccc(Nc2nc3nccc(-c4cccc(F)c4)n3n2)cc1 [Compound 1g, 4-((7-(3-Fluorophenyl)-[1,2,4]triazolo[1,5-a]pyrimidin-2-yl)amino)benzenesulfonamide]	0.853	0.551	0.0459	0.0426	0.0224	12.9	1.1	20.0	24.6	2.0	38.1
NS(=O)(=O)c1ccc(Nc2nc3nccc(-c4ccccc4)n3n2)cc1 [Compound 1a, 4-((7-Phenyl-[1,2,4]triazolo[1,5-a]pyrimidin-2-yl)amino)benzenesulfonamide]	1.33	0.841	0.0753	0.0717	0.0332	11.7	1.0	18.5	25.3	2.3	39.9
COc1ccc(-c2ccnc3nc(Nc4ccc(S(N)(=O)=O)cc4)nn23)cc1OC [Compound 1ab, 4-((7-(3,4-Dimethoxyphenyl)-[1,2,4]triazolo[1,5-a]pyrimidin-2-yl)amino)benzenesulfonamide]	1.52	0.993	0.0952	0.009	0.0358	110	10.6	169	27.7	2.6	42.4
NS(=O)(=O)c1ccc(Nc2nc3nccc(-c4ccc(F)cc4)n3n2)cc1 [Compound 1f, 4-((7-(4-Fluorophenyl)-[1,2,4]triazolo[1,5-a]pyrimidin-2-yl)amino)benzenesulfonamide]	0.993	0.763	0.0827	0.0624	0.0288	12.2	1.3	15.9	26.5	2.9	34.5
COc1cc(OC)cc(-c2ccnc3nc(Nc4ccc(S(N)(=O)=O)cc4)nn23)c1 [Compound 1aa, 4-((7-(3,5-Dimethoxyphenyl)-[1,2,4]triazolo[1,5-a]pyrimidin-2-yl)amino)benzenesulfonamide]	1.01	4.53	0.11	0.0271	0.0468	167	4.1	37.2	96.7	2.4	21.5
NS(=O)(=O)c1ccc(Nc2nc3nccc(-c4cccs4)n3n2)cc1 [Compound 1b, 4-((7-(Thiophen-2-yl)-[1,2,4]triazolo[1,5-a]pyrimidin-2-yl)amino)benzenesulfonamide]	2.66	0.501	0.0982	0.0669	0.0495	7.5	1.5	39.7	10.1	2.0	53.7

More lines, now with the values ahead:

Ki (hCA IV) [µM]	Ki (hCA I) [µM]	Ki (hCA II) [µM]	Ki (hCA XII) [µM]	Ki (hCA IX) [µM]	Selectivity index I/XII (hCA XII)	Selectivity index II/XII (hCA XII)	Selectivity index IV/XII (hCA XII)	Selectivity index I/IX (hCA IX)	Selectivity index II/IX (hCA IX)	Selectivity index IV/IX (hCA IX)	Structure (SMILES)
2.29	1.47	0.064	0.0612	0.0415	24.0	1.0	37.4	35.5	1.5	55.1	Cc1ccc(-c2ccnc3nc(Nc4ccc(S(N)(=O)=O)cc4)nn23)cc1 [Compound 1t, 4-((7-(p-Tolyl)-[1,2,4]triazolo[1,5-a]pyrimidin-2-yl)amino)benzenesulfonamide]
8.85	7.63	0.559	0.039	0.0957	196	14.3	227	79.7	5.8	92.5	NS(=O)(=O)c1ccc(Nc2nc3nccc(-c4ccc(I)cc4)n3n2)cc1 [Compound 1p, 4-((7-(4-Iodophenyl)-[1,2,4]triazolo[1,5-a]pyrimidin-2-yl)amino)benzenesulfonamide]
3.98	8.45	0.0771	0.0489	0.0204	173	1.6	81.4	414	3.8	195	NS(=O)(=O)c1ccc(Nc2nc3nccc(-c4ccccc4[N+](=O)[O-])n3n2)cc1 [Compound 1s, 4-((7-(2-Nitrophenyl)-[1,2,4]triazolo[1,5-a]pyrimidin-2-yl)amino)benzenesulfonamide]
3.26	4.29	0.0863	0.0421	0.0694	102	2.0	77.4	61.8	1.2	46.9	NS(=O)(=O)c1ccc(Nc2nc3nccc(-c4ccc([N+](=O)[O-])cc4)n3n2)cc1 [Compound 1q, 4-((7-(4-Nitrophenyl)-[1,2,4]triazolo[1,5-a]pyrimidin-2-yl)amino)benzenesulfonamide]
0.703	0.743	0.0176	0.0225	0.0219	33	0.8	31.2	33.9	0.8	32.1	NS(=O)(=O)c1ccc(Nc2nc3nccc(-c4c(F)cccc4F)n3n2)cc1 [Compound 1i, 4-((7-(2,6-Difluorophenyl)-[1,2,4]triazolo[1,5-a]pyrimidin-2-yl)amino)benzenesulfonamide]
4.85	1.4	0.0552	0.0702	0.0262	20.0	0.8	69.0	53.5	2.1	185	Cc1cccc(-c2ccnc3nc(Nc4ccc(S(N)(=O)=O)cc4)nn23)c1 [Compound 1u, 4-((7-(m-Tolyl)-[1,2,4]triazolo[1,5-a]pyrimidin-2-yl)amino)benzenesulfonamide]
8.82	2.68	0.0428	0.0304	0.0047	88.1	1.4	290	570	9.1	1877	Cc1ccccc1-c1ccnc2nc(Nc3ccc(S(N)(=O)=O)cc3)nn12 [Compound 1v, 4-((7-(o-Tolyl)-[1,2,4]triazolo[1,5-a]pyrimidin-2-yl)amino)benzenesulfonamide]
4	2.25	0.0624	0.0292	0.0741	77.1	2.1	137	30.4	0.8	53.9	NS(=O)(=O)c1ccc(Nc2nc3nccc(-c4ccc(Cl)cc4)n3n2)cc1 [Compound 1k, 4-((7-(4-Chlorophenyl)-[1,2,4]triazolo[1,5-a]pyrimidin-2-yl)amino)benzenesulfonamide]
5.21	3.37	0.2	0.0582	0.0527	57.8	3.4	89.6	63.8	3.8	98.9	NS(=O)(=O)c1ccc(Nc2nc3nccc(-c4ccc(Br)cc4)n3n2)cc1 [Compound 1n, 4-((7-(4-Bromophenyl)-[1,2,4]triazolo[1,5-a]pyrimidin-2-yl)amino)benzenesulfonamide]
4.33	9.2	0.133	0.0786	0.0381	117	1.7	55.1	241	3.5	114	NS(=O)(=O)c1ccc(Nc2nc3nccc(-c4cccc(Br)c4)n3n2)cc1 [Compound 1o, 4-((7-(3-Bromophenyl)-[1,2,4]triazolo[1,5-a]pyrimidin-2-yl)amino)benzenesulfonamide]
